Source: patent US20200131196A1 (Mount Tam Therapeutics, Inc., priority 2017, published 2020)
Like-named read-outs stand apart in the source and are kept apart here.

Experiments:
SK-NEP-1 = experiment: OncoPanel cell proliferation assay, SK-NEP-1; settings: for EC50 / GI50 / IC50: Homo sapiens; for EC50: SK-NEP-1, read-out: Cell Count EC50; for GI50: SK-NEP-1, read-out: Cell Count GI50; for IC50: SK-NEP-1, read-out: Cell Count IC50; for Cell Count Activity Area / Relative cell count (%) Mean: SK-NEP-1
Experimental: (§2) Cells were seeded into 384-well plates and incubated in a humidified atmosphere of 5% CO2 at 37° C. Compounds were added the day following cell seeding. At the same time, a time zero untreated cell plate was generated. After a 3-day incubation period, cells were fixed and stained to allow fluorescence imaging of nuclei. Compounds (1 mM stock solutions) were serially diluted in half-log steps from the highest test concentration (1 micromol), and assayed over 10 concentrations with a maximum assay concentration of 0.1% DMSO. Automated fluorescence microscopy was carried out using a Molecular Devices ImageXpress Micro XL high-content imager, and images were collected with a 4× objective. 16-bit TIFF images were acquired and analyzed with MetaXpress 5.1.0.41 software.

A388 = experiment: OncoPanel cell proliferation assay, A388; format: cell-based, human; settings: for EC50 / GI50 / IC50: Homo sapiens; for EC50: read-out: Cell Count EC50; for GI50: read-out: Cell Count GI50; for IC50: read-out: Cell Count IC50
Experimental: Cells were seeded into 384-well plates and incubated in a humidified atmosphere of 5% CO2 at 37° C. Compounds were added the day following cell seeding. At the same time, a time zero untreated cell plate was generated. After a 3-day incubation period, cells were fixed and stained to allow fluorescence imaging of nuclei. Compounds (1 mM stock solutions) were serially diluted in half-log steps from the highest test concentration ([…]), and assayed over 10 concentrations with a maximum assay concentration of 0.1% DMSO. Automated fluorescence microscopy was carried out using a Molecular Devices ImageXpress Micro XL high-content imager, and images were collected with a 4× objective. 16-bit TIFF images were acquired and analyzed with MetaXpress 5.1.0.41 software.
Cell proliferation was measured by the fluorescence intensity of an incorporated nuclear dye. The output is referred to as the relative cell count, where the measured nuclear intensity is transformed to percent of control (POC) using the following formula: […]
Cellular response parameters were calculated using nonlinear regression to a sigmoidal single-site dose response model:
GI50 is the concentration needed to reduce the observed growth by half (midway between the curve maximum and the time zero value). […] In rare instances, values <0 or >10 may be observed. […] Curve-fitting, calculations, and report generation was performed using a custom data reduction engine and MathIQ based software (AIM).

SK-UT-1 = experiment: OncoPanel cell proliferation assay, SK-UT-1; settings: for EC50 / GI50 / IC50: Homo sapiens; for EC50: SK-UT-1, read-out: Cell Count EC50; for GI50: SK-UT-1, read-out: Cell Count GI50; for IC50: SK-UT-1, read-out: Cell Count IC50; for Cell Count Activity Area / Relative cell count (%) Mean: SK-UT-1
Experimental: as §2

TORC2 = target: T1, TORC2 (Homo sapiens, UniProt P42345+P62942); experiment: TORC2 inhibition in PC3 cells (Western blot, phospho Akt (S473)); format: cell-based
T1 construct: endogenous in cells; host or cells: PC3 cells
T1 sequence (P62942 2-108 limits assumed, other chains not shown): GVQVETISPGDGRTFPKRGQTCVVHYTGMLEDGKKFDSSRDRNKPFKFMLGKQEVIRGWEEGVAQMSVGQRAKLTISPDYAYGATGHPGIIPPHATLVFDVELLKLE
Experimental: (§1) Equal amounts of protein were resolved by SDS-PAGE and transferred to nitrocellulose membrane using the Invitrogen Nu-Page system. […] The following day, blots were washed 3 times in TBST, incubated for 2 hr with secondary antibodies (donkey anti rabbit hrp conjugated), and finally washed an additional 3 times in TBST. ECL Prime (Amersham) was used to detect the proteins of interest and ImageJ was used to quantify blots.

TORC1 = target: T2, TORC1 (Homo sapiens, UniProt P42345+P62942); experiment: TORC1 inhibition in PC3 cells (Western blot, phospho-rpS6); format: cell-based
T2 construct: endogenous in cells; host or cells: PC3 cells
Experimental: as §1

[1] = Pharmacokinetics in male Sprague Dawley rats (intravenous and oral); format: in vivo, rat; settings: for bioavailability: male, Sprague Dawley, po, 10 mg/kg; for AUC: read-out: AUC 0-infinity_observed
Experimental: Table 6 provides the pharmacokinetic parameters of Example (I) in male Sprague Dawley rats after a single bolus intravenous dose of 2 mg/kg. Table 7 provides the pharmacokinetic parameters of Example I in male Sprague Dawley rats after a single bolus oral dose of 10 mg/kg. In order to measure bioavailability in vivo, a compound may be administered to a test animal (e.g. mouse or rat) both intraperitoneally (i.p.) or intravenously (i.v.) and orally (p.o.) and blood samples are taken at regular intervals to examine how the plasma concentration of the drug varies over time. The time course of plasma concentration over time can be used to calculate the absolute bioavailability of the compound as a percentage using standard models. An example of a typical protocol is described below. […] The time-course of plasma or whole blood concentrations can then be used to derive key parameters such as the area under the plasma or blood concentration-time curve (AUC-which is directly proportional to the total amount of unchanged drug that reaches the systemic circulation), the maximum (peak) plasma or blood drug concentration, the time at which maximum plasma or blood drug concentration occurs (peak time), additional factors which are used in the accurate determination of bioavailability include: the compound's terminal half-life, total body clearance, steady-state volume of distribution and F %. These parameters are then analyzed by non-compartmental or compartmental methods to give a calculated percentage bioavailability, for an example of this type of method see Gallant-[…] et al, 2000 and […] et al, 1998, and references therein.

[2] = male Sprague Dawley rats, single bolus intravenous dose of 2 mg/kg
[3] = male Sprague Dawley rats, single bolus oral dose of 10 mg/kg
[4] = rat, blood, male Sprague Dawley rats, single bolus intravenous dose of 2 mg/kg
[5] = rat, blood, male Sprague Dawley rats, single bolus oral dose of 10 mg/kg

**Q.** What does the source list for CO[C@H]1C[C@@H]2CC[C@@H](C)[C@@](O)(O2)C(=O)C(=O)N2CCCC[C@H]2C(=O)O[C@H]([C@H](C)C[C@@H]2CC[C@@H](O)[C@H](OC)C2)CC(=O)[C@H](C)/C=C(\C)[C@@H](O)[C@@H](OC)C(=O)[C@H](C)C[C@H](C)/C=C/C=C/C=C/1C [Rapamycin, reference compound]?
**A.** EC50 (SK-NEP-1): 0.293 nM; GI50 (SK-NEP-1): 0.361 nM; IC50 (SK-NEP-1): 1.47 nM; Cell Count Activity Area (SK-NEP-1): 4.22; EC50 (A388): > 1000 nM; GI50 (A388): > 1000 nM; IC50 (A388): > 1000 nM; EC50 (SK-UT-1): 0.2 nM; GI50 (SK-UT-1): > 1000 nM; IC50 (SK-UT-1): > 1000 nM; Cell Count Activity Area (SK-UT-1): 3.23

**Q.** What does the source list for CO[C@H]1C[C@@H]2CC[C@@H](C)[C@@](O)(O2)C(=O)C(=O)N2CCCC[C@H]2C(=O)O[C@H]([C@H](C)C[C@H]2C[C@H]3C[C@@H]2C[C@@H]3O)CC(=O)[C@H](C)/C=C(\C)[C@@H](O)[C@@H](OC)C(=O)[C@H](C)C[C@H](C)/C=C/C=C/C=C/1C [Formula II, C37-[(1R,2S,4R,5S)-5-hyhroxybicyclo[2.2.1]heptane] rapamycin]?
**A.** IC50 (TORC2): 5 nM; EC50 (SK-NEP-1): 2.48 nM; GI50 (SK-NEP-1): 3.27 nM; IC50 (SK-NEP-1): 18.1 nM; Cell Count Activity Area (SK-NEP-1): 3.36; Relative cell count (%) Mean (SK-NEP-1; 1.00E+00 microM): 41.8%; Relative cell count (%) Mean (SK-NEP-1; 1.00E-01 microM): 45.4%; Relative cell count (%) Mean (SK-NEP-1; 1.00E-02 microM): 59.8%; Relative cell count (%) Mean (SK-NEP-1; 1.00E-03 microM): 86.5%; Relative cell count (%) Mean (SK-NEP-1; 1.01E-04 microM): 106.4%; Relative cell count (%) Mean (SK-NEP-1; 3.16E-01 microM): 44.3%; Relative cell count (%) Mean (SK-NEP-1; 3.17E-02 microM): 49.3%; Relative cell count (%) Mean (SK-NEP-1; 3.17E-03 microM): 67.1%; Relative cell count (%) Mean (SK-NEP-1; 3.18E-04 microM): 94.6%; Relative cell count (%) Mean (SK-NEP-1; 3.18E-05 microM): 99.0%; Cell Count Activity Area (A388): 1.60; Relative cell count (%) Mean (A388; 1.00E+00 microM): 62.7%; Relative cell count (%) Mean (A388; 1.00E-01 microM): 65.6%; Relative cell count (%) Mean (A388; 1.00E-02 microM): 79.8%; Relative cell count (%) Mean (A388; 1.00E-03 microM): 80.8%; Relative cell count (%) Mean (A388; 1.01E-04 microM): 95.5%; Relative cell count (%) Mean (A388; 3.16E-01 microM): 62.3%; Relative cell count (%) Mean (A388; 3.17E-02 microM): 66.7%; Relative cell count (%) Mean (A388; 3.17E-03 microM): 79.0%; Relative cell count (%) Mean (A388; 3.18E-04 microM): 87.7%; Relative cell count (%) Mean (A388; 3.18E-05 microM): 86.5%; EC50 (A388): 8.24 nM; GI50 (A388): > 1000 nM; IC50 (A388): > 1000 nM; TORC1/TORC2 Selectivity (TORC1): 50x; selectivity of mTORC1 vs mTORC2 inhibition compared with the polyketide disclosed in U.S. Pat. No. 9,382,266 (in words) (TORC1): less selectively; IC50 (TORC1; Western blot): 0.099 nM; AUMC 0-inf_observed [1, 2]: 2358 ng/ml*h^2; Cl_obs [1, 2]: 0.0026 (mg/kg)/(ng/ml)/h; Lambda_z [1, 2]: 0.270 h⁻¹; Vss_obs [1, 2]: 0.00797 (mg/kg)/(ng/ml); Vz_obs [1, 2]: 0.00963 (mg/kg)/(ng/ml); AUMC 0-inf_obs [1, 3]: 13410 ng/ml*h^2; Cl/F_obs [1, 3]: 0.0055 (mg/kg)/(ng/ml)/h; Lambda_z [1, 3]: 0.127 h⁻¹; Tlag [1, 3]: 0 h; Vz/F_obs [1, 3]: 0.0433 (mg/kg)/(ng/ml); bioavailability ([1]; rat, blood, male Sprague Dawley rats, single bolus oral dose of 10 mg/kg, read-out: % F): 47%; bioavailability ([1]; rat, blood, read-out: oral bioavailability): ~47%; AUC(0-t) [1, 4]: 694 ng·h/mL; C0 [1, 4]: 1560 ng/mL; half-life [1, 4]: 2.57 h; AUC [1, 4]: 769 ng·h/mL; Cmax ([1]; rat, blood, male Sprague Dawley rats, single bolus intravenous dose of 2 mg/kg, read-out: Cmax (maximum blood concentration)): 912 ng/mL; MRT ([1]; rat, blood, male Sprague Dawley rats, single bolus intravenous dose of 2 mg/kg, read-out: MRT 0-infinity_observed): 3.06 h; Tmax ([1]; rat, blood, male Sprague Dawley rats, single bolus intravenous dose of 2 mg/kg, read-out: Tmax (time maximum blood conc.)): 0.0333 h; AUC(0-t) [1, 5]: 1720 ng·h/mL; half-life [1, 5]: 5.46 h; AUC [1, 5]: 1820 ng·h/mL; Cmax ([1]; rat, blood, male Sprague Dawley rats, single bolus oral dose of 10 mg/kg, read-out: Cmax): 206 ng/mL; MRT inf ([1]; rat, blood, male Sprague Dawley rats, single bolus oral dose of 10 mg/kg, read-out: MRT 0-inf_obs): 7.37 h; Tmax ([1]; rat, blood, male Sprague Dawley rats, single bolus oral dose of 10 mg/kg, read-out: Tmax): 2 h; EC50 (SK-UT-1): 1.51 nM; GI50 (SK-UT-1): 11.3 nM; IC50 (SK-UT-1): 38.2 nM; Cell Count Activity Area (SK-UT-1): 3.48; Relative cell count (%) Mean (SK-UT-1; 1.00E+00 microM): 47.0%; Relative cell count (%) Mean (SK-UT-1; 1.00E-01 microM): 59.0%; Relative cell count (%) Mean (SK-UT-1; 1.00E-02 microM): 76.1%; Relative cell count (%) Mean (SK-UT-1; 1.00E-03 microM): 82.8%; Relative cell count (%) Mean (SK-UT-1; 1.01E-04 microM): 114.4%; Relative cell count (%) Mean (SK-UT-1; 3.16E-01 microM): 53.3%; Relative cell count (%) Mean (SK-UT-1; 3.17E-02 microM): 61.4%; Relative cell count (%) Mean (SK-UT-1; 3.17E-03 microM): 75.4%; Relative cell count (%) Mean (SK-UT-1; 3.18E-04 microM): 96.2%; Relative cell count (%) Mean (SK-UT-1; 3.18E-05 microM): 116.9%

**Q.** Which results are given for CN[C@@H]1C[C@H]2O[C@@](C)([C@@H]1OC)n1c3ccccc3c3c4c(c5c6ccccc6n2c5c31)C(=O)NC4 [Staurosporine, reference compound]?
**A.** EC50 (SK-NEP-1): 48.2 nM; GI50 (SK-NEP-1): 36.5 nM; Cell Count Activity Area (SK-NEP-1): 2.78; Cell Count Activity Area (A388): 4.99; GI50 (A388): 1.03 nM; EC50 (SK-UT-1): 21.8 nM; GI50 (SK-UT-1): 19.5 nM; Cell Count Activity Area (SK-UT-1): 3.46
